Measured values as given in US9521850B2 (University of Florida Research Foundation, Incorporated, priority 2012, dated 2016).
In brackets after ≈: the same amount, converted by molar mass.

How the values were obtained:
[1] = target: SecA of Ca. L. asiaticus (Candidatus Liberibacter asiaticus, UniProt A0ABM5NFG5); assay: biochemical
[2] = tested on: A. tumefaciens; assay: microbe, parasite or virus in culture; format: cell-based; conditions: Agrobacterium tumefaciens, 24 h
[3] = tested on: Liberibacter crescens; assay: microbe, parasite or virus in culture; format: cell-based
[4] = tested on: Rhizobium etli; assay: microbe, parasite or virus in culture; format: cell-based
[5] = tested on: Bradyrhizobium japonicum; assay: microbe, parasite or virus in culture; format: cell-based
[6] = tested on: Xanthomonas citri; assay: microbe, parasite or virus in culture; format: cell-based, Xanthomonas citri subsp. citri
[7] = tested on: Mesorhizobium loti; assay: microbe, parasite or virus in culture; format: cell-based
[8] = tested on: Sinorhizobium meliloti; assay: microbe, parasite or virus in culture; format: cell-based
[9] = tested on: Agrobacterium tumefaciens; assay: microbe, parasite or virus in culture; format: cell-based
[10] = tested on: CLAS; assay: CLAS transmission rate using graft-based approach (Example 3); format: in vivo; conditions: budwood treated at 500 μg/ml, grafted onto Valencia trees
Procedure: HLB-infected budwoods were collected in HLB infected grove in teaching block at CREC. The presence of CLAS titers in budwood was confirmed by qPCR.
C16 and streptomycin were applied at the rate of 500 μg/ml; water-treated budwood was used as check. The budwoods were placed in a glass bottle containing either treatment or water as check. The glass bottles were kept in a ventilation hood with light on to increase the evaporation rate, therefore, promoting the uptake of antibiotics. Leaf and bark samples were collected from each budwood and 100 mg were accurately weighed and used for DNA extraction with Promega genomic DNA extraction kit. CLAS populations in each sample were determined using standard qPCR protocol. Each DNA sample was run in triplicate wells.
After overnight treatment, the antibiotic-treated budwood was grafted onto 2-3 years old Valencia trees. A total of 15 trees were grafted for each treatment. […] Four leaves from the main stem of Valencia trees were sampled for DNA extraction and determination of CLAS populations.

[11] = tested on: CLAS populations; assay: Effect on CLAS populations, mean Ct by quantitative PCR (Example 2)

| Structure (SMILES) | MBC [2] | MBC ([3]; 24 h) | MIC ([3]; 24 h) | MBC ([3]; 120 h) | MIC ([3]; 120 h) | MBC ([4]; 24 hrs) | MIC ([4]; 24 hrs) | MBC ([4]; 120 hrs) | MIC ([4]; 120 hrs) | MBC ([5]; 24 hrs) | MIC ([5]; 24 hrs) | MBC ([5]; 120 hrs) | MIC ([5]; 120 hrs) | MBC [6] | MIC [6] | MBC [7] | MIC [7] | MBC [8] | MIC [8] | MBC [9] | also measured |
| --- | --- | --- | --- | --- | --- | --- | --- | --- | --- | --- | --- | --- | --- | --- | --- | --- | --- | --- | --- | --- | --- |
| COc1ccc2nc(NC(=O)CSc3nc4cc(C)ccc4[nH]3)sc2c1 [Compound C19, N-(6-methoxy-1,3-benzo-thiazol-2-yl)-2-[(5-methyl-1H-benz-imidazol-2-yl)thio]acetamide] | 128 µg/mL (≈ 333 µM) | 8 µg/mL (≈ 20.8 µM) | 8 µg/mL (≈ 20.8 µM) | 16 µg/mL (≈ 41.6 µM) | 16 µg/mL (≈ 41.6 µM) | 32 µg/mL (≈ 83.2 µM) | 32 µg/mL (≈ 83.2 µM) | 64 µg/mL (≈ 166 µM) | 32 µg/mL (≈ 83.2 µM) | 32 µg/mL (≈ 83.2 µM) | 32 µg/mL (≈ 83.2 µM) | 64 µg/mL (≈ 166 µM) | 64 µg/mL (≈ 166 µM) | 64 µg/mL (≈ 166 µM) | 32 µg/mL (≈ 83.2 µM) | 32 µg/mL (≈ 83.2 µM) | 16 µg/mL (≈ 41.6 µM) | 64 µg/mL (≈ 166 µM) | 32 µg/mL (≈ 83.2 µM) | 128 µg/mL (≈ 333 µM) | IC50 [1]: 640 nM; MIC [9]: 32 µg/mL (≈ 83.2 µM) |
| COc1cc(-c2cc(-c3ccccc3)nc3sc(C(=O)O)c(N)c23)cc(OC)c1OC [Compound C17, 3-amino-6-phenyl-4-(3,4,5-trimethoxy-phenyl)thieno [2,3-b]pyridine-2-carboxylic acid] | 256 µg/mL (≈ 586 µM) | 16 µg/mL (≈ 36.7 µM) | 16 µg/mL (≈ 36.7 µM) | 32 µg/mL (≈ 73.3 µM) | 32 µg/mL (≈ 73.3 µM) | 64 µg/mL (≈ 147 µM) | 32 µg/mL (≈ 73.3 µM) | 64 µg/mL (≈ 147 µM) | 32 µg/mL (≈ 73.3 µM) | 32 µg/mL (≈ 73.3 µM) | 16 µg/mL (≈ 36.7 µM) | 64 µg/mL (≈ 147 µM) | 32 µg/mL (≈ 73.3 µM) | 32 µg/mL (≈ 73.3 µM) | 16 µg/mL (≈ 36.7 µM) | 32 µg/mL (≈ 73.3 µM) | 16 µg/mL (≈ 36.7 µM) | 32 µg/mL (≈ 73.3 µM) | 16 µg/mL (≈ 36.7 µM) | 64 µg/mL (≈ 147 µM) | IC50 [1]: 920 nM; MIC [9]: 64 µg/mL (≈ 147 µM) |
| [H]/N=C(/N)N[C@H]1[C@H](O)[C@@H](O)[C@H](O[C@@H]2O[C@@H](C)[C@](O)(C=O)[C@H]2O[C@@H]2O[C@@H](CO)[C@H](O)[C@@H](O)[C@@H]2NC)[C@@H](N/C(N)=N\[H])[C@@H]1O [Streptomycin, reference compound] | 64 µg/mL (≈ 110 µM) | 16 µg/mL (≈ 27.5 µM) | 16 µg/mL (≈ 27.5 µM) | 32 µg/mL (≈ 55 µM) | 32 µg/mL (≈ 55 µM) | 4 µg/mL (≈ 6.88 µM) | 4 µg/mL (≈ 6.88 µM) | 16 µg/mL (≈ 27.5 µM) | 16 µg/mL (≈ 27.5 µM) | 32 µg/mL (≈ 55 µM) | 32 µg/mL (≈ 55 µM) | 32 µg/mL (≈ 55 µM) | 32 µg/mL (≈ 55 µM) | 32 µg/mL (≈ 55 µM) | 32 µg/mL (≈ 55 µM) | 32 µg/mL (≈ 55 µM) | 16 µg/mL (≈ 27.5 µM) | 128 µg/mL (≈ 220 µM) | 64 µg/mL (≈ 110 µM) | 128 µg/mL (≈ 220 µM) | CLAS transmission rate (% trees tested positive for CLAS) ([10]; 3 months after grafting): 13.3%; CLAS transmission rate (% trees tested positive for CLAS) ([10]; 6 months after grafting): 66.7%; MIC [9]: 64 µg/mL (≈ 110 µM) |
| COc1ccc(NC(=O)C2(NC(=O)c3ccc(-n4cnnn4)cc3)CCCCC2)cc1 [Compound C18, N-(1-{[(4-methoxy-phenyl)amino]carbonyl}cyclo-hexyl)-4-(1H-tetrazol-1-yl)benzamide] | 256 µg/mL (≈ 609 µM) | 8 µg/mL (≈ 19 µM) | 8 µg/mL (≈ 19 µM) | 16 µg/mL (≈ 38.1 µM) | 16 µg/mL (≈ 38.1 µM) | 16 µg/mL (≈ 38.1 µM) | 16 µg/mL (≈ 38.1 µM) | 32 µg/mL (≈ 76.1 µM) | 32 µg/mL (≈ 76.1 µM) | 8 µg/mL (≈ 19 µM) | 8 µg/mL (≈ 19 µM) | 16 µg/mL (≈ 38.1 µM) | 16 µg/mL (≈ 38.1 µM) | 32 µg/mL (≈ 76.1 µM) | 16 µg/mL (≈ 38.1 µM) | 32 µg/mL (≈ 76.1 µM) | 16 µg/mL (≈ 38.1 µM) | 64 µg/mL (≈ 152 µM) | 32 µg/mL (≈ 76.1 µM) | 128 µg/mL (≈ 304 µM) | IC50 [1]: 480 nM; MIC [9]: 32 µg/mL (≈ 76.1 µM) |
| CCc1nnc(NC(=O)c2cc3c([nH]c4ccccc43)c(C)n2)s1 [Compound C16, N-(5-ethyl-1,3,4-thiadiazol-2-yl)-1-methyl-9H-beta-carboline-3-carboxamide] | 256 µg/mL (≈ 759 µM) | 16 µg/mL (≈ 47.4 µM) | 8 µg/mL (≈ 23.7 µM) | 32 µg/mL (≈ 94.8 µM) | 16 µg/mL (≈ 47.4 µM) | 16 µg/mL (≈ 47.4 µM) | 16 µg/mL (≈ 47.4 µM) | 32 µg/mL (≈ 94.8 µM) | 32 µg/mL (≈ 94.8 µM) | 16 µg/mL (≈ 47.4 µM) | 16 µg/mL (≈ 47.4 µM) | 32 µg/mL (≈ 94.8 µM) | 32 µg/mL (≈ 94.8 µM) | 32 µg/mL (≈ 94.8 µM) | 16 µg/mL (≈ 47.4 µM) | 16 µg/mL (≈ 47.4 µM) | 8 µg/mL (≈ 23.7 µM) | 64 µg/mL (≈ 190 µM) | 32 µg/mL (≈ 94.8 µM) | 128 µg/mL (≈ 379 µM) | IC50 [1]: 250 nM; inhibition of ATPase activity of SecA, in words [1]: high activity; CLAS transmission rate (% trees tested positive for CLAS) ([10]; 3 months after grafting): 6.7%; CLAS transmission rate (% trees tested positive for CLAS) ([10]; 6 months after grafting): 80%; MIC [9]: 64 µg/mL (≈ 190 µM); mean Ct value (CLAS populations) ([11]; 2 days after treatment): 23.76 a; mean Ct value (CLAS populations) ([11]; 4 days after treatment): 25.43 b; mean Ct value (CLAS populations) ([11]; Before treatment): 22.71 a; CLAS population reduction as compared to water-treated control ([11]; P<0.05, Fisher's LSD): significant effect |
